The molecules below were run against T1, KRAS G12C 1-169, his-tagged protein, GDP-loaded (Homo sapiens, UniProt P01116, G12C) (assay: Biochemical assay: covalent binding to KRAS G12C measured by mass spectrometry (RapidFire/TOF or Q-Exactive)). Conditions: covalent binding to KRAS G12C after a thirty minute incubation period.
T1 construct: KRAS G12C 1-169, his-tagged protein, GDP-loaded; His tag
Protocol: Test compounds were prepared as 10 mM stock solutions in DMSO (Fisher cat #BP-231-100). KRAS G12C 1-169, his-tagged protein, GDP-loaded was diluted to 0.5 μM in buffer (20 mM Hepes, 150 mM NaCl, 1 mM MgCl2). Compounds were tested for activity as follows:
Compounds were diluted to 50× final test concentration in DMSO in 96-well storage plates. Compound stock solutions were vortexed before use and observed carefully for any sign of precipitation. Dilutions were as follow: • For 100 μM final compound concentration, compounds were diluted to 5000 μM (5 μL 10 mM compound stock+5 μL DMSO and mixed well by pipetting. • For 30 μM final compound concentration, compounds were diluted to 1500 μM (3 μL 10 mM compound stock+17 μL DMSO) and mixed well by pipetting. • For 10 μM final compound concentration, compounds were diluted to 500 μM (2 μL 10 mM compound stock+38 μL DMSO) and mixed well by pipetting. 49 μL of the stock protein solution was added to each well of a 96-well PCR plate (Fisher cat #1423027). 1 μl of the diluted 50× compounds were added to appropriate wells in the PCR plate using 12-channel pipettor. Reactions were mixed carefully and thoroughly by pipetting up/down with a 200 μL multi-channel pipettor. The plate was sealed well with aluminum plate seal, and stored in drawer at room temperature for 10 minutes, 30 minutes, 2 hours or 24 hours. 5 μL of 2% formic acid (Fisher cat #A117) in de-ionized H2O was then added to each well followed by mixing with a pipette. The plate was then resealed with aluminum seal and stored on dry ice until analyzed as described below.
The above described assays were analyzed by mass spectrometry according to one of the following two procedures:
The MS instrument is set to positive polarity, 2 GHz resolution, and low mass (1700) mode and allowed to equilibrate for 30 minutes. The instrument is then calibrated, switched to acquisition mode and the appropriate method loaded.
After another 30 minute equilibration time, a blank batch (i.e., buffer) is run to ensure equipment is operating properly. The samples are thawed at 37° C. for 10 minutes, briefly centrifuged, and transfer to the bench top. Wells A1 and H12 are spiked with 1 μL 500 μM internal standard peptide, and the plates centrifuged at 2000×g for 5 minutes. The method is then run and masses of each individual well recorded.
The masses (for which integration data is desired) for each well are pasted into the platemap and exported from the analysis. Masses for the internal standards are exported as well. The data at 50 ppm is extracted for the +19 charge state, and identity of well A1 is assigned using the internal standard spike and integrated. Peak data is exported as a TOF list and the above steps are repeated individually, for the +20, 21, 22, 23, 24, and 25 charge states.
The masses and peak intensities of KRAS G12C protein species were measured using a Dionex RSLCnano system (Thermo Scientific) connected to a Q Exactive Plus mass spectrometer (Thermo Scientific).
[…] of sample was each loaded onto a Aeris™ 3.6 μm WIDEPORE C4 200 Å, LC Column 50×2.1 mm column maintained at 40° C. at a flow rate of 600 μL/min with 20% Solvent A (0.1% formic acid in H2O) and 80% Solvent B (0.1% formic acid in acetonitrile). The liquid chromatography conditions were 20% solvent B for 1 minute, 20% to 60% solvent B for 1.5 minutes, 60% to 90% solvent for 0.5 minute, 90% solvent B for 0.2 minute, 90% to 20% solvent B for 0.2 minute, and then equilibrated for 1.6 minute before the following sample injection. The flow rate was maintained at 600 μL/min throughout the sample analysis.
The mass spectrometer was operated in profile mode at a resolution of 17500, 5 microscans, using 50 msec max injection time and an AGC target of 1×10^6, and a full mass range from 800-1850 m/z was recorded. The HCD trapping gas was optimized for maximum sensitivity for intact proteins. […]

How did the Binding % turn out when `C=CC(=O)N1CC(c2nc3ccc(-c4cc(O)cc5ccccc45)cc3c(=O)n2CCCN(C)C)C1` [Compound 4, 2-(1-acryloylazetidin-3-yl)-3-(3-(dimethylamino)propyl)-6-(3-hydroxynaphthalen-1-yl)quinazolin-4(3H)-one] was run?
Its Binding % is “+++ (+++ indicates binding activity greater than 50%)”.

`C=CC(=O)N1CC(Cc2nc3ccc(-c4cc(O)cc5ccccc45)cc3c(=O)n2CCCN(C)C)C1` [Compound 27, 2-((1-acryloylazetidin-3-yl)methyl)-3-(3-(dimethylamino)propyl)-6-(3-hydroxynaphthalen-1-yl)quinazolin-4(3H)-one] was tested. Which Binding % did it give?
The Binding % was “+ (+ indicates binding activity up to 10%)”.

Which Binding % does the source give for `C=CC(=O)N1CC(c2nc(NC3CCN(C4CC4)CC3)c3cc(-c4c(C)ccc5[nH]ncc45)ccc3n2)C1` [Compound 31, 1-(3-(4-((1-cyclopropylpiperi-din-4-yl)amino)-6-(5-methyl-1H-indazol-4-yl)quinazolin-2-yl)azetidin-1-yl)prop-2-en-1-one] here?
The Binding % was “+ (+ indicates binding activity up to 10%)”.

Which Binding % does the source give for `C=CC(=O)N1CC(c2nc(NCC(=O)N3CC(N(C)C)C3)c3cc(-c4cc(O)cc5ccccc45)ccc3n2)C1` [Compound 21, 1-(3-(4-((2-(3-(dimethylamino)azetidin-1-yl)-2-oxoethyl)amino)-6-(3-hydroxynaphthalen-1-yl)quinazolin-2-yl)azetidin-1-yl)prop-2-en-1-one] here?
Its Binding % is “+ (+ indicates binding activity up to 10%)”.

With `C=CC(=O)N1CC(c2nc3ccc(-c4cccc5[nH]nc(I)c45)cc3c(=O)n2CCCN(C)C)C1` [Compound 6, 2-(1-acryloylazetidin-3-yl)-3-(3-(dimeth-ylamino)propyl)-6-(3-iodo-1H-indazol-4-yl)quinazolin-4(3H)-one] as the molecule, how does the Binding % read?
Its Binding % is “+ (+ indicates binding activity up to 10%)”.

For `C=CC(=O)N1CC(c2nc(N3CC(N(C)C)C3)c3cc(-c4c(C)ccc5[nH]ncc45)ccc3n2)C1` [Compound 32, 1-(3-(4-(3-(dimethylamino)aze-tidin-1-yl)-6-(5-methyl-1H-indazol-4-yl)quinazolin-2-yl)azetidin-1-yl)prop-2-en-1-one], which Binding % is on record?
The Binding % was “+ (+ indicates binding activity up to 10%)”.

With `C=CC(=O)N1CC(c2nc3ccc(-c4c(C)ccc5[nH]ncc45)cc3c(=O)n2C)C1` [Compound 3, 2-(1-acryloylazetidin-3-yl)-3-methyl-6-(5-methyl-1H-indazol-4-yl)quinazolin-4(3H)-one] as the molecule, how does the Binding % read?
Its Binding % is “++ (++ indicates binding activity from 10 to 50%)”.

For `C=CC(=O)N1CC(c2nc3ccc(-c4c(C)ccc5[nH]ncc45)cc3c(=O)n2CCCN(C)C)C1` [Compound 5, 2-(1-acryloylazetidin-3-yl)-3-(3-(dimethylamino)propyl)-6-(5-methyl-1H-indazol-4-yl)quinazolin-4(3H)-one], which Binding % is on record?
The Binding % was “++ (++ indicates binding activity from 10 to 50%)”.

Which Binding % does the source give for `C=CC(=O)N1CC(c2nc(N3CCC(O)C3)c3cc(-c4cc(O)cc5ccccc45)ccc3n2)C1` (centres unmarked) [Compound 34, 1-(3-(6-(3-hydroxynaphthalen-1-yl)-4-(3-hydroxypyrrolidin-1-yl)quinazolin-2-yl)azetidin-1-yl)prop-2-en-1-one] here?
Its Binding % is “+ (+ indicates binding activity up to 10%)”.

For `C=CC(=O)N1CC(c2nc3ccc(-c4cc(O)cc5ccccc45)cc3c(=O)n2C)C1` [Compound 2, 2-(1-acryloylazetidin-3-yl)-6-(3-hydroxynaphthalen-1-yl)-3-methylquinazolin-4(3H)-one], which Binding % is on record?
The Binding % was “+++ (+++ indicates binding activity greater than 50%)”.

For `C=CC(=O)N1CC(c2nc3ccc(-c4cccc5[nH]nc(C)c45)cc3c(=O)n2CCCN(C)C)C1` [Compound 7, 2-(1-acryloylazetidin-3-yl)-3-(3-(dimeth-ylamino)propyl)-6-(3-methyl-1H-indazol-4-yl)quinazolin-4(3H)-one], which Binding % is on record?
The Binding % was “+ (+ indicates binding activity up to 10%)”.

Which Binding % does the source give for `C=CC(=O)N1CC(c2nc3ccc(-c4cc(O)cc5ccccc45)cc3c(=O)[nH]2)C1` [Compound 1, 2-(1-acryloylazetidin-3-yl)-6-(3-hydroxynaphthalen-1-yl)quinazolin-4(3H)-one] here?
The Binding % was “++ (++ indicates binding activity from 10 to 50%)”.

For `C=CC(=O)N1CC(c2nc(-n3ccnc3)c3cc(-c4cc(O)cc5ccccc45)ccc3n2)C1` [Compound 30, 1-(3-(6-(3-hydroxynaphthalen-1-yl)-4-(1H-imidazol-1-yl)quinazolin-2-yl)azetidin-1-yl)prop-2-en-1-one], which Binding % is on record?
Its Binding % is “+ (+ indicates binding activity up to 10%)”.

`C=CC(=O)N1CC(c2nc(NCCc3ncccn3)c3cc(-c4c(C)ccc5[nH]ncc45)ccc3n2)C1` [Compound 33, 1-(3-(6-(5-methyl-1H-indazol-4-yl)-4-((2-(pyrimidin-2-yl)ethyl)amino)quin-azolin-2-yl)azetidin-1-yl)prop-2-en-1-one] was tested. Which Binding % did it give?
Its Binding % is “+ (+ indicates binding activity up to 10%)”.
